Test results published in patent publication US7288273B1, “Gallotannins and ellagitannins as regulators of cytokine release” (The Penn State Research Foundation, priority 2000, dated 2007).

System: LPS induced TNF-α secretion from h-PBMC's
Test: Inhibition of LPS induced TNF-α secretion from h-PBMC's
Type: cell-based, human
Conditions: for TNF-α secreted in the presence of LPS and 17c-20c: compound 10 μg/mL added after 45 minutes, h-PBMC's 3rd subject; for TNF-α secreted in the presence of LPS and 17c-20c / TNF-α secreted in the presence of LPS and 19c / 20c / TNF-α secreted in the presence of LPS and 18c-20c: ± SD; for TNF-α secreted in the presence of LPS and 19c / 20c: 8 h incubation; for TNF-α secreted in the presence of LPS and 19c / 20c / TNF-α secreted in the presence of LPS and 18c-20c: 4th subject
Protocol: In the second study, the ability of compounds 17c-20c to inhibit LPS induced TNF-α production in h-PBMC's was investigated using four assays. The first experiment was a kinetics run in which the h-PBMC's were initially incubated with a fixed concentration of LPS (5 μg/mL) for 45 minutes. This incubation period was followed by addition of a fixed concentration (10 μg/mL) of compounds 17c-20c. The cells were harvested at varying intervals of time. […] The optimal time was determined by comparing the amount of TNF-α secreted by LPS alone to the amount of TNF-α secreted by LPS and substrate at each time point.
The second assay determined the minimum amount of substrate required for inhibition. LPS (10 μg/mL) was incubated with h-PBMC's for 45 minutes followed by addition of 17c-20c at varying concentrations. The cell culture supernatant was harvested after 8 hours. The inherent variability in using cells from different subjects, or in the day of assay, made it difficult to compare overall effectiveness of inhibitors. Therefore, to more easily identify the concentration at which maximum inhibition occurs for a given compound, the TNF-α secretion was normalized by calculating a percent of maximum secretion value (based on LPS alone) (FIG. 13). […] The optimal concentration for inhibition varied between substrates, but the general dose response trend was the same. Overall, the maximum inhibition was 45% for 18c and 20c, and 25% for 19c.
The third assay investigated the ability of 17c, 18c, and 20c to inhibit LPS induced TNF-α secretion using a smaller dosage of LPS (5 μg/mL) (FIG. 14). Again, the response was dose dependent. The maximum inhibition was 45% for 17c and 20c, and 35% for 18c.
In the fourth assay the varying concentrations of substrates 17c-20c and LPS were added at the same time to determine the effect of addition sequence on the inhibition of TNF-α secretion (FIG. 15). The addition time seemed to make a difference in the overall dose response trend. However, maximum inhibition was the same as when the compounds were added 45 minutes after LPS addition (about 40% for each compound).
Finally, in the last study, analogs 19c and 20c were again tested for inhibition LPS induced TNF-α secretion (FIG. 17). In this assay a smaller dose of LPS was used to determine if inhibition was greater when much lower doses of LPS were present. The substrates were added 45 minutes after LPS addition and the cells were harvested after 8 hours. It doesn't appear as though the substrates are better inhibitors when smaller amounts of LPS are used, again perhaps reflecting receptor saturation with LPS at this dosage.

[1] = LPS 10 μg/mL, substrate added after 45 minutes, 8 hours
[2] = compound 0.6 μM added 45 minutes after LPS 1 μg/mL
[3] = compound 0.6 μM added 45 minutes after LPS 10 μg/mL, 8 hours
[4] = compound 2.9 μM added 45 minutes after LPS 10 μg/mL, 8 hours
[5] = compound 5.9 μM added 45 minutes after LPS 10 μg/mL, 8 hours
[6] = compound 11.7 μM added 45 minutes after LPS 10 μg/mL, 8 hours
[7] = compound 23.5 μM added 45 minutes after LPS 10 μg/mL, 8 hours

Structure (SMILES) | TNF-α secreted in the presence of LPS and 17c-20c (LPS 5 μg/mL, time 1 h) [pg/mL] | TNF-α secreted in the presence of LPS and 17c-20c (LPS 5 μg/mL, time 4 h) [pg/mL] | TNF-α secreted in the presence of LPS and 17c-20c (LPS 5 μg/mL, time 8 h) [pg/mL] | TNF-α secreted in the presence of LPS and 17c-20c (LPS 5 μg/mL, time 12 h) [pg/mL] | TNF-α secreted in the presence of LPS and 17c-20c (LPS 5 μg/mL, time 16 h) [pg/mL] | TNF-α secreted in the presence of LPS and 17c-20c (LPS 5 μg/mL, time 24 h) [pg/mL] | maximum inhibition of LPS induced TNF-α secretion (LPS 5 μg/mL, 3rd subject) [%] | maximum inhibition of LPS induced TNF-α secretion [1] [%] | TNF-α secreted in the presence of LPS and 19c / 20c [2] [% max. response] | TNF-α secreted in the presence of LPS and 18c-20c [3] [% max. response] | TNF-α secreted in the presence of LPS and 18c-20c [4] [% max. response] | TNF-α secreted in the presence of LPS and 18c-20c [5] [% max. response] | TNF-α secreted in the presence of LPS and 18c-20c [6] [% max. response] | TNF-α secreted in the presence of LPS and 18c-20c [7] [% max. response] | other results
O=C(CCCCCC(=O)OC1O[C@H](COC(=O)c2cc(O)c(O)c(O)c2)[C@@H](OC(=O)c2cc(O)c(O)c(O)c2)[C@H](OC(=O)c2cc(O)c(O)c(O)c2)[C@H]1OC(=O)c1cc(O)c(O)c(O)c1)OC1O[C@H](COC(=O)c2cc(O)c(O)c(O)c2)[C@@H](OC(=O)c2cc(O)c(O)c(O)c2)[C@H](OC(=O)c2cc(O)c(O)c(O)c2)[C@H]1OC(=O)c1cc(O)c(O)c(O)c1 (mixture of isomers) [Compound 20c, 1,1′-O-2,2′,3,3′,4,4′,6,6′-Tetrakis(3,4,5-trihyroxybenzoyl)-β,β′-D,D′-glucopyranosylpimelate] | 243.6 ± 52.8 | 2370.1 ± 95.7 | 2889.8 ± 383.2 | 2313.2 ± 339.1 | 2628.4 ± 571.0 | 2356.4 ± 400.3 | 45 | 45 | 109.1 ± 14.9 | 89.8 ± 9.2 | 65.6 ± 8.3 | 67.1 ± 8.9 | 63.3 ± 4.7 | 63.9 ± 13.9 | TNF-α secreted in the presence of LPS and 19c / 20c (compound 1.8 μM added 45 minutes after LPS 1 μg/mL): 110.6 ± 1.3 % max. response; TNF-α secreted in the presence of LPS and 19c / 20c (compound 3.5 μM added 45 minutes after LPS 1 μg/mL): 62.4 ± 10.2 % max. response; TNF-α secreted in the presence of LPS and 19c / 20c (compound 5.9 μM added 45 minutes after LPS 1 μg/mL): 69.5 ± 27.9 % max. response; TNF-α secreted in the presence of LPS and 19c / 20c (compound 11.8 μM added 45 minutes after LPS 1 μg/mL): 98.4 ± 12.1 % max. response
O=C(OC[C@H]1O[C@@H](OC(=O)c2ccc(-c3ccc(C(=O)O[C@@H]4O[C@H](COC(=O)c5cc(O)c(O)c(O)c5)[C@@H](OC(=O)c5cc(O)c(O)c(O)c5)[C@H](OC(=O)c5cc(O)c(O)c(O)c5)[C@H]4OC(=O)c4cc(O)c(O)c(O)c4)cc3)cc2)[C@H](OC(=O)c2cc(O)c(O)c(O)c2)[C@@H](OC(=O)c2cc(O)c(O)c(O)c2)[C@@H]1OC(=O)c1cc(O)c(O)c(O)c1)c1cc(O)c(O)c(O)c1 [Compound 19c, 1,1′-O-2.2′,3,3′,4,4′,6,6′-Tetrakis(3,4,5-trihyroxybenzoyl)-β,β′-D,D′-glucopyranosylbiphenyl-4.4′-diester] | 328.2 ± 61.5 | 1880.0 ± 20.1 | 1921.5 ± 399.8 | 2229.3 ± 353.1 | 2561.2 ± 718.8 | 2146.9 ± 69.3 | – | 25 | 85.1 ± 10.3 | 114.3 ± 11.9 | – | – | – | – | TNF-α secreted in the presence of LPS and 19c / 20c (compound 1.7 μM added 45 minutes after LPS 1 μg/mL): 78.3 ± 9.1 % max. response; TNF-α secreted in the presence of LPS and 18c-20c (compound 2.8 μM added 45 minutes after LPS 10 μg/mL, 8 hours): 83.5 ± 26.1 % max. response; TNF-α secreted in the presence of LPS and 19c / 20c (compound 3.4 μM added 45 minutes after LPS 1 μg/mL): 81.8 ± 15.9 % max. response; TNF-α secreted in the presence of LPS and 19c / 20c (compound 5.6 μM added 45 minutes after LPS 1 μg/mL): 57.5 ± 14.1 % max. response; TNF-α secreted in the presence of LPS and 18c-20c (compound 5.6 μM added 45 minutes after LPS 10 μg/mL, 8 hours): 79.4 ± 15.1 % max. response; TNF-α secreted in the presence of LPS and 19c / 20c (compound 11.2 μM added 45 minutes after LPS 1 μg/mL): 57.4 ± 7.3 % max. response; TNF-α secreted in the presence of LPS and 18c-20c (compound 11.2 μM added 45 minutes after LPS 10 μg/mL, 8 hours): 92.4 ± 21.4 % max. response; TNF-α secreted in the presence of LPS and 18c-20c (compound 22.4 μM added 45 minutes after LPS 10 μg/mL, 8 hours): 73.0 ± 12.6 % max. response
O=C(OC[C@H]1O[C@@H](OC(=O)c2cccc(C(=O)O[C@@H]3O[C@H](COC(=O)c4cc(O)c(O)c(O)c4)[C@@H](OC(=O)c4cc(O)c(O)c(O)c4)[C@H](OC(=O)c4cc(O)c(O)c(O)c4)[C@H]3OC(=O)c3cc(O)c(O)c(O)c3)c2)[C@H](OC(=O)c2cc(O)c(O)c(O)c2)[C@@H](OC(=O)c2cc(O)c(O)c(O)c2)[C@@H]1OC(=O)c1cc(O)c(O)c(O)c1)c1cc(O)c(O)c(O)c1 [Compound 18c, 1,1′-O-2,2′,3,3′,4,4′,6,6′-Tetrakis(3,4,5-trihydroxybenzoyl)-β,β′-D-glucopyranosylisophthalate] | 594.6 ± 93.2 | 1523.3 ± 472.8 | 2829.3 ± 52.6 | 2448.1 ± 43.6 | 3956.3 ± 524.5 | 2002.1 ± 95.1 | 35 | 45 | – | 69.0 ± 4.9 | 71.9 ± 15.2 | 59.5 ± 9.5 | 54.4 ± 15.4 | 60.6 ± 9.9 | –
